Values of other authors, collected in patent publication US11747352B2 (Concordia University, Inc., priority 2017, dated 2023).

Conditions: Table CYP2D6; cited from earlier work

| SMILES | ORAL BIOAVAILABILITY |
| --- | --- |
| CNCC[C@H](Oc1cccc2ccccc12)c1cccs1 [Duloxetine] | 30-80% ^ |
| O=C(NCC1CCCCN1)c1cc(OCC(F)(F)F)ccc1OCC(F)(F)F (centres unmarked) [Flecainide] | 70-95% ^ |
| CN(C)CCCN1c2ccccc2CCc2ccccc21 [Imipramine] | 94-96% ^ |

Same assay, conditions: Table CYP3A4; cited from earlier work

| SMILES | ORAL BIOAVAILABILITY |
| --- | --- |
| CCOC(=O)C1=C(COCCN)NC(C)=C(C(=O)OC)C1c1ccccc1Cl (centres unmarked) [Amlodipine] | 64-90% ^ |
| C[C@@H](O[C@H]1OCCN(Cc2n[nH]c(=O)[nH]2)[C@H]1c1ccc(F)cc1)c1cc(C(F)(F)F)cc(C(F)(F)F)c1 [Aprepitant] | 60-65% ^ |
| COC(=O)N[C@H](C(=O)N[C@@H](Cc1ccccc1)[C@@H](O)CN(Cc1ccc(-c2ccccn2)cc1)NC(=O)[C@@H](NC(=O)OC)C(C)(C)C)C(C)(C)C [Atazanavir] | 60-68% ^ |
| CC(C)C[C@H]1C(=O)N2CCC[C@H]2[C@]2(O)O[C@](NC(=O)[C@@H]3C=C4c5cccc6[nH]c(Br)c(c56)C[C@H]4N(C)C3)(C(C)C)C(=O)N12 [Bromocriptine] | 65-95% ^ |
| CCCC1O[C@@H]2C[C@H]3[C@@H]4CCC5=CC(=O)C=C[C@]5(C)[C@H]4[C@@H](O)C[C@]3(C)[C@]2(C(=O)CO)O1 (some centres unmarked) [Budesonide] | 9-21%^ |
| COc1cc(N)c(Cl)cc1C(=O)NC1CCN(CCCOc2ccc(F)cc2)CC1OC (centres unmarked) [Cisapride] | 35-65% ^ |
| O=C1Nc2ccc(Cl)cc2[C@@](C#CC2CC2)(C(F)(F)F)O1 [Efavirenz] | 40-45% ^ |
| CC[C@H]1OC(=O)[C@H](C)[C@@H](O[C@H]2C[C@@](C)(OC)[C@@H](O)[C@H](C)O2)[C@H](C)[C@@H](O[C@@H]2O[C@H](C)C[C@H](N(C)C)[C@H]2O)[C@](C)(O)C[C@@H](C)C(=O)[C@H](C)[C@@H](O)[C@]1(C)O [Erythromycin] | 30-65% ^ |
| C#C[C@]1(O)CC[C@H]2[C@@H]3CCc4cc(O)ccc4[C@H]3CC[C@@]21C [Ethinyl Estradiol] | 38-48% ^ |
| CCOC(=O)C1=C(C)NC(C)=C(C(=O)OC)C1c1cccc(Cl)c1Cl (centres unmarked) [Felodipine] | 13-20% ^ |

Same assay, conditions: in vivo, po; cited from earlier work

| SMILES | ORAL BIOAVAILABILITY [%] |
| --- | --- |
| CC(N)Cc1ccccc1 (centres unmarked) [Amphetamine] | 100 |

Conditions: Table CYP1A2; cited from earlier work

| SMILES | HALF LIFE [h] |
| --- | --- |
| COc1ccc2cccc(CCNC(C)=O)c2c1 [Agomelatine] | 1 to 2 |
| CN1CCN(C2=Nc3cc(Cl)ccc3Nc3ccccc32)CC1 [Clozapine] | 4 to 66 |
| CN(C)CCC=C1c2ccccc2C=Cc2ccccc21 [Cyclobenzaprine] | 8 to 37 |
| COCCCC/C(=N\OCCN)c1ccc(C(F)(F)F)cc1 [Fluvoxamine] | ~14 to 16 |
| O=C(CCCN1CCC(O)(c2ccc(Cl)cc2)CC1)c1ccc(F)cc1 [Haloperidol] | 14 to 37 |
| COc1ccc2[nH]cc(CCNC(C)=O)c2c1 [Melatonin] | 0.583 to 0.833 |
| Cc1cc2c(s1)Nc1ccccc1N=C2N1CCN(C)CC1 [Olanzapine] | 21 to 54 |
| Cc1nccn1CC1CCc2c(c3ccccc3n2C)C1=O (centres unmarked) [Ondansetron] | 3 to 6 |
| CC(=O)Nc1ccc(O)cc1 [Paracetamol] | 1 to 4 |
| CC/C(=C(\c1ccccc1)c1ccc(OCCN(C)C)cc1)c1ccccc1 [Tamoxifen] | ~120 to 170 |
| Cn1c(=O)c2[nH]cnc2n(C)c1=O [Theophylline] | 1.5 to 9.8 |
| CC(c1cc2ccccc2s1)N(O)C(N)=O (centres unmarked) [Zileuton] | 2.5 to 3.2 |

Same assay, conditions: Table CYP2C9; cited from earlier work

| SMILES | HALF LIFE [h] |
| --- | --- |
| O=C(O)Cc1ccccc1Nc1c(Cl)cccc1Cl [Diclofenac] | 1.9 to 2.2 |
| CCC1=C(C)CN(C(=O)NCCc2ccc(S(=O)(=O)NC(=O)N[C@H]3CC[C@H](C)CC3)cc2)C1=O [Glimepiride] | 5 to 9.2 |
| CN(CCOc1ccc(CC2SC(=O)NC2=O)cc1)c1ccccn1 (centres unmarked) [Rosiglitazone] | 3 to 4 |
| CC(C(=O)O)c1ccc(C(=O)c2cccs2)cc1 (centres unmarked) [Suprofen] | 2 to 4 |
| CC/C(=C(\c1ccccc1)c1ccc(OCCN(C)C)cc1)c1ccccc1 [Tamoxifen] | 120 to 170 |
| CC[C@@H](c1cccc(O)c1)[C@@H](C)CN(C)C [Tapentadol] | 4 to 5 |
| CN(C/C=C/C#CC(C)(C)C)Cc1cccc2ccccc12 [Terbinafine] | 22 to 26 |
| CCCCNC(=O)NS(=O)(=O)c1ccc(C)cc1 [Tolbutamide] | 4.5 to 6.5 |
| Cc1cccc(Nc2ccncc2S(=O)(=O)NC(=O)NC(C)C)c1 [Torasemide] | 2.2 to 3.8 |

Same assay, conditions: Table CYP2D6; cited from earlier work

| SMILES | HALF LIFE [h] |
| --- | --- |
| C=CCc1ccccc1OCC(O)CNC(C)C (centres unmarked) [Alprenolol] | 2 to 3 |
| CN[C@@H](C)Cc1ccccc1 [Dextromethamphetamine] | 12 |
| O=C(CCCN1CCC(O)(c2ccc(Cl)cc2)CC1)c1ccc(F)cc1 [Haloperidol] | 14 to 37 |
| COc1cc(C(C)=O)ccc1OCCCN1CCC(c2noc3cc(F)ccc23)CC1 [Iloperidone] | 18 to 33 |
| CCN(CC)CCNC(=O)c1cc(Cl)c(N)cc1OC [Metoclopramide] | 5 to 6 |
| COCCc1ccc(OCC(O)CNC(C)C)cc1 (centres unmarked) [Metoprolol] | 3 to 7 |
| Cc1cc(-c2ccccc2)nnc1NCCN1CCOCC1 [Minaprine] | 2 to 2.5 |
| CN(C)C[C@H]1CCCC[C@]1(O)c1cccc(O)c1 [O-desmethyltramadol] | 9 |
| Cc1nccn1CC1CCc2c(c3ccccc3n2C)C1=O (centres unmarked) [Ondansetron] | 3 to 6.2 |
| Fc1ccc([C@@H]2CCNC[C@H]2COc2ccc3c(c2)OCO3)cc1 [Paroxetine] | 15 to 21 |
| C1CCC(C(CC2CCCCN2)C2CCCCC2)CC1 (centres unmarked) [Perhexiline] | 12 to 18 |
| OCCN1CCN(CCCN2c3ccccc3Sc3ccc(Cl)cc32)CC1 [Perphenazine] | 9 to 12 |
| CC(CN1c2ccccc2Sc2ccccc21)N(C)C (centres unmarked) [Promethazine] | 16 to 19 |
| CCN1CCC[C@H]1CNC(=O)c1c(OC)ccc(Br)c1OC [Remoxipride] | 3 to 6 |
| Cc1nc2n(c(=O)c1CCN1CCC(c3noc4cc(F)ccc34)CC1)CCCC2 [Risperidone] | 3 to 20 |
| CC/C(=C(\c1ccccc1)c1ccc(OCCN(C)C)cc1)c1ccccc1 [Tamoxifen] | 120 to 170 |
| CC[C@@H](c1cccc(O)c1)[C@@H](C)CN(C)C [Tapentadol] | 4 to 5 |
| CSc1ccc2c(c1)N(CCC1CCCCN1C)c1ccccc1S2 (centres unmarked) [Thioridazine] | 21 to 24 |
| CN1[C@@H]2CC[C@H]1C[C@@H](OC(=O)c1c[nH]c3ccccc13)C2 [Tropisetron] | 5.6 to 8.6 |

Same assay, conditions: Table CYP3A4; cited from earlier work

| SMILES | HALF-LIFE [h] |
| --- | --- |
| CC(=O)O[C@H]1C(=O)[C@@]2(C)[C@H]([C@H](OC(=O)c3ccccc3)[C@]3(O)C[C@H](OC(=O)[C@H](O)[C@@H](NC(=O)c4ccccc4)c4ccccc4)C(C)=C1C3(C)C)[C@]1(OC(C)=O)CO[C@@H]1C[C@@H]2O [Paclitaxel] | 13.1 to 57.7 |

Same assay, conditions: in vivo; cited from earlier work

| SMILES | HALF LIFE [h] | HALF-LIFE [h] |
| --- | --- | --- |
| COc1ccc2c3c1O[C@H]1[C@@H](O)C=C[C@H]4[C@@H](C2)N(C)CC[C@@]341 [Codeine] | 2.5 to 3 |  |
| CCN[C@@H](C)Cc1cccc(C(F)(F)F)c1 [Dexfenfluramine] | 17 to 20 |  |
| COc1ccc2c(c1)[C@]13CCCC[C@@H]1[C@H](C2)N(C)CC3 [Dextromethorphan] | 1.4 to 3.9 |  |
| COc1ccc2c3c1O[C@H]1C(=O)CC[C@H]4[C@@H](C2)N(C)CC[C@]314 [Hydrocodone] | 7 to 9 |  |
| CCC1(c2ccccc2)C(=O)NC(=O)N(C)C1=O (centres unmarked) [Methylphenobarbital] |  | 11 to 67 |
| Nc1c2c(nc3ccccc13)CCCC2 [Tacrine] | 2 to 4 |  |
| COc1cccc(C2(O)CCCCC2CN(C)C)c1 (centres unmarked) [Tramadol] | 5.5 to 6.7 |  |
